Data reported in patent EP0168522A2, “Active agent-containing shaped article” (Akzo Patente GmbH, priority 1983, dated 1986).
≈ marks a conversion by molar mass, not a printed value.

Experiment: Water solubility of the active agent
Type: physicochemical
Settings: in water; read-out: Wasserlöslichkeit

Structure (SMILES) | solubility [mg/mL]
Oc1ccc(O)cc1 [Hydrochinon] | ~70 (≈ 636 mM)
CC(=O)Nc1ccc(O)cc1 [Acetaminophen] | 14 (≈ 92.6 mM)
